Source: PMC12120661, “Synthesis and Biological Evaluation of 4‑(4-Nitrophenyl)‑1H‑1,2,3-triazole Derivatives as Antitrypanosomal Agents” (ACS Omega, 2025)

What was measured:
[1] = test system: T. cruzi amastigotes (Colombian strain) in pre-exposed C2C12 cells; test: Antiamastigote activity in pretreated (pre-exposed) C2C12 cells; format: cell-based, Trypanosoma cruzi; conditions: for selective index C2C12: CC50/IC50, C2C12 treated previously to infection; for IC50: Trypanosoma cruzi, C2C12 treated previously to infection
Experimental: (§1) After 24 h, the culture medium was removed and replaced with fresh medium containing cell-derived trypomastigotes (MOI 20:1, Colombian strain) overnight.
(§2) In the infection plate each well was added 50 μL of cold methanol for cell fixation. The plate was kept at −20 °C for 1 h. After this period, the wells were blocked with 50 μL of PBS 1X-Saponin 0.1 + 10% rabbit serum for 10 min at room temperature. Following, the wells were washed four times with PBS 1X-Saponin 0.1% and 50 μL of the same solution was added to each well, incubating for 20 min at room temperature. Subsequently, 50 μL of PBS 1X-Saponin 0.1% + anti-T. cruzi antibody (from serum of infected patients) at a 1:10 dilution was added, and the plate was incubated for 1 h at room temperature. The wells were then washed four times with PBS 1X-Saponin 0.1%, and 50 μL of PBS 1X-Saponin 0.1% + antihuman IgG-FITC at a 1:200 dilution was added. The plate was incubated wrapped in aluminum foil for 30 min. After incubation, the plate was washed four times with PBS 1X-Saponin 0.1%, and 50 μL of PBS 1X was added to all wells after the final wash. For nuclear staining, the plate, already stained with FITC, was washed three times with PBS 1X, and 200 μL of PBS 1X + 1 μL of iodide per well was added. After staining, the wells were washed again, and 100 μL of PBS 1X was added before imaging.
(§3) The plate was analyzed in the EVOS fluorescence microscope for image acquisition and fluorescence identification, in which the anti-IgG-FITC stains parasite′s membrane in green and iodide stains nuclei in red. On each condition of treatment, 200 cells of 3 wells were evaluated as to the number of infected cells and the number of parasites per cell for calculating the index of infection the IC50 were calculated by Nonlinear regression curves (log[inhibitor] vs normalized response). Selective index was calculated by dividing CC50 per IC50.

[2] = Cellular viability (MTT), noninfected LLC-MK2; format: cell-based; conditions: rhesus monkey, noninfected LLC-MK2 epithelial cells; noninfected LLC-MK2, Table 2 (treatment after infection); read-out: CC50 non infected MK2
Experimental: (§4) The antiamastigote activity was assessed by calculating the infection index, defined as the percentage of infected cells multiplied by the mean number of amastigotes per cell. Noninfected control cells were subjected to identical treatment conditions to evaluate the cytotoxicity of the compounds (CC50). This comprehensive approach allowed for the simultaneous assessment of antiparasitic efficacy and compound-induced cytotoxicity, offering valuable insights into their therapeutic potential.
(§5) Following 24 h of treatment, 10 μL of 5 mg/mL of MTT (3-(4,5-dimethylthiazol-2-yl)-2,5-diphenyltetrazolium bromide) was added per well, and absorbance was evaluated in the Eon Microplate Spectrophotometer Reader (BioTek) at 570–690 nm. CC50 were calculated by Nonlinear regression curves (log[inhibitor] vs normalized response).

[3] = test system: LLC-MK2 cells; test: Cellular viability (MTT), noninfected LLC-MK2; format: cell-based; conditions: noninfected LLC-MK2, Table 3 (treatment previously to infection); read-out: CC50 non infected MK2
Experimental: as §4, §5

[4] = test system: T. cruzi amastigotes (Colombian strain) in pre-exposed LLC-MK2 cells; test: Antiamastigote activity in pretreated (pre-exposed) LLC-MK2 cells; format: cell-based, Trypanosoma cruzi; conditions: for selective index MK2: CC50/IC50, LLC-MK2 treated previously to infection; for IC50: Trypanosoma cruzi, LLC-MK2 treated previously to infection
Experimental: as §1, §2, §3

[5] = target: T1, Recombinant trans-sialidase from T. cruzi (TcTS) (Trypanosoma cruzi, UniProt Q26966); test: Continuous fluorimetric TcTS inhibition (MuNANA hydrolysis); format: biochemical
T1 construct: A truncated recombinant TcTs, containing the enzyme’s catalytic N-terminal domain, was used; made in house
Experimental: Although the main reaction catalyzed by TcTS involves the transfer of host sialic acids to β-galactose acceptors found in parasite surface mucins, a residual hydrolase activity is also present and was utilized to screen a small library of TcTS inhibitors.
A truncated recombinant TcTs, containing the enzyme’s catalytic N-terminal domain, was used. The production and purification of TcTs were performed following previously described protocols. The continuous fluorimetric TcTS assay was conducted in 96-well plates containing phosphate buffer solution at pH 7.4 (25 μL), recombinant enzyme solution (25 μL) and inhibitor solution (25 μL). […] The enzyme activity was measured by calculating the slope of the curve for each concentration of the test compound. Pyridoxal phosphate was used as the inhibition control at a concentration of 1 mM. The IC50 value was determined using the log(inhibitor) vs normalized response–variable slope model in GraphPad Prism version 10.0.0 for Windows, GraphPad Software, Boston, Massachusetts (www.graphpad.com).

[6] = test system: T. cruzi intracellular amastigotes (Colombian strain) in LLC-MK2 cells; test: Antiamastigote activity, infection index, treatment after infection, LLC-MK2; format: cell-based, Trypanosoma cruzi; conditions: for selective index MK2: CC50/IC50, LLC-MK2, treatment after infection; for IC50: Trypanosoma cruzi, LLC-MK2, 48 h, infected LLC-MK2, 48 h treatment after infection; for selectivity indices: stated in text across LLC-MK2 and C2C12, treatment after infection
Experimental: (§6) Considering the dynamics of T. cruzi infection in humans, characterized by an increase in parasitic load through intracellular replication of amastigote forms in various cell types, we evaluated the action of the compounds in LLC-MK2 (epithelial cells) and C2C12 (myoblasts) using an in vitro infection model.
as §4, §2, §3

[7] = test system: T. cruzi nitroreductase (TcNTR72); test: T. cruzi nitroreductase activity assay (NADH oxidation); conditions: 50 μM NADH, 25 °C; for Kobs (12.5 μM): compound 12.5 μM; for Kobs (25 μM): compound 25 μM; for Kobs (50 μM): compound 50 μM; for Kobs (100 μM): compound 100 μM
Experimental: TcNTR72 was expressed, purified, and its activity was tested following previously described protocol. […] This mixture was incubated at room temperature for 5 min. […] All assays were performed in triplicate for each measurement and for each concentration. Benznidazole was used as a control.

[8] = test system: T. cruzi intracellular amastigotes (Colombian strain) in C2C12 cells; test: Antiamastigote activity, infection index, treatment after infection, C2C12; format: cell-based, Trypanosoma cruzi; conditions: for selective index C2C12: CC50/IC50, C2C12, treatment after infection; for IC50: Trypanosoma cruzi, infected C2C12, 48 h treatment after infection
Experimental: as §6, §4, §2, §3

[9] = Cellular viability (MTT), noninfected C2C12; format: cell-based, murine; conditions: mouse, noninfected C2C12 myoblast cells; noninfected C2C12, Table 2 (treatment after infection); read-out: CC50 non infected C2C12
Experimental: as §4
(§7) The LLC-MK2 (ATCC CCL-7) cell line of epithelial origin, and C2C12 (ATCC CRL-1772) myoblast cells, derived from murine myoblasts, were maintained in Roswell Park Memorial Institute-RPMI 1640 medium supplemented with L-glutamine, 25 mM HEPES (Corning), 10% (v/v) fetal bovine serum (FBS), and gentamicin (1 μL/mL). […] Once the cells reached 80% confluence, were detached using Trypsin-EDTA and prepared in the subsequent experiments.
as §5

[10] = test system: C2C12 cells; test: Cellular viability (MTT), noninfected C2C12; format: cell-based, murine; conditions: noninfected C2C12, Table 3 (treatment previously to infection); read-out: CC50 non infected C2C12
Experimental: as §4, §7, §5

[11] = Cytotoxicity against primary mouse macrophages; format: cell-based; conditions: mouse, primary mouse macrophages (PMM)
From the text: 1 In Vitro Anti- T. cruzi (Trypomastigote) Activity and Cytotoxicity Assessment of Hit 1 Analogs ^a | column: PMM CC50 (μM)

[12] = Solubility observations; conditions: 2.000 to 0.062 mM, 0.5% DMSO
[13] = Preliminary cytotoxicity assay, resazurin; format: cell-based; conditions: MRC-5SV2 lung fibroblast cells; human MRC-5 cell line, 3 days incubation
Experimental: MRC-5SV2 cell cytotoxicity was assessed following the methodology outlined in earlier literature. Briefly, cells at a concentration of 1.5 × 10^5 cells/mL were cultured with compound dilutions at 37 °C and 5% CO2. Cell growth was compared to untreated-control wells (100% cell growth) and medium-control wells (0% cell growth). After 3 days of incubation, cell viability was fluorometrically assessed following the addition of 50-μL resazurin per well. Fluorescence was measured after 4 h at 37 °C (λex 550 nm, λem 590 nm). The results were expressed as the percentage reduction in cell growth/viability compared to control wells, and an IC50 value was determined.

[14] = test system: T. cruzi Tulahuen CL2 β-galactosidase strain; test: Antitrypanosomal screening, anti-T. cruzi (trypomastigote) activity, CPRG photometric method; format: cell-based; conditions: Trypanosoma cruzi; Tulahuen CL2 β-galactosidase strain on MRC-5SV2; values in parentheses mean ± SEM of two experiments
Experimental: A preliminary assay was conducted to evaluate the analogs’ in vitro cytotoxicity and antitrypanosomatid activity against T. cruzi Tulahuen strain (Table ). […] However, the promising results of analog 16 encouraged us to conduct more in-depth studies on this compound.
Anti-parasitic assays were conducted following established protocols outlined in earlier literature. In brief, for assessing anti-T. cruzi activity, the Tulahuen CL2 β-galactosidase strain (nifurtimox-sensitive) was employed and maintained on MRC-5SV2 (human lung fibroblast). A total of 4 × 10^3 cells were infected with 4 × 10^4 parasites per well. The synthesized analogs were tested at concentrations ranging from 1.56 to 50.00 μM. Parasite burdens were evaluated after the addition of the substrate CPRG (chlorophenol red ß-D-galactopyranoside). The change in color was measured spectrophotometrically at 540 nm after 4 h of incubation at 37°C. In all assays, parasite growth was compared to untreated-infected controls (100% growth) and noninfected controls (0% growth). Results were expressed as the percentage of parasite reduction at different drug concentrations and used to calculate IC50 values from the dose–response curves.

[15] = test system: trypomastigotes forms of T. cruzi Tulahuen strain (LacZ); design: method as in de Andrade et al., 2015; conditions: previous work of the group; ref de Andrade et al., 2015; read-out: IC50 against trypomastigotes forms of T. cruzi Tulahuen strain (LacZ); cited from earlier work
[16] = previous work of the group; cited from earlier work

T1 sequence (Q26966 entry or part of it): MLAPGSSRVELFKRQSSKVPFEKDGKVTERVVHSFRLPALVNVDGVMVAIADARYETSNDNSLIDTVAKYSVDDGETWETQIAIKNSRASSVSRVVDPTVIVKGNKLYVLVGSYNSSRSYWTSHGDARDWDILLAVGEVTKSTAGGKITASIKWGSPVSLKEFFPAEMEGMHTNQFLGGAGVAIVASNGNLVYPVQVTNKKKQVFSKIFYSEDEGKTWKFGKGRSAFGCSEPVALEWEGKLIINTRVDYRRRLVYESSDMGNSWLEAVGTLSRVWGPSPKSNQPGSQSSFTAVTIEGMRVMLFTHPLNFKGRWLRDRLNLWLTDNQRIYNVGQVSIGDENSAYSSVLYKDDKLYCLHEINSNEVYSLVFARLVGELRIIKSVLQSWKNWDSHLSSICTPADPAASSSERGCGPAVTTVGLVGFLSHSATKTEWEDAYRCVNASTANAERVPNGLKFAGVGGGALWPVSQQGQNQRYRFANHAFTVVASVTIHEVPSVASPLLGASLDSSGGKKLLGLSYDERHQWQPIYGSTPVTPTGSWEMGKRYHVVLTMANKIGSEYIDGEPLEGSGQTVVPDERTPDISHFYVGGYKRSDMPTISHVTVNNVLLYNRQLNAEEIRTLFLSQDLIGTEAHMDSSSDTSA

| Structure (SMILES) | selective index C2C12 [1] | IC50 [1] [µM] | CC50 at 24 h [2] [µM] | CC50 [3] [µM] | selective index MK2 [4] | IC50 [4] [µM] | selective index MK2 [6] | IC50 [6] [µM] | selectivity indices [6] | Kobs (12.5 μM) [7] [s^–1] | Kobs (25 μM) [7] [s^–1] | Kobs (50 μM) [7] [s^–1] | Kobs (100 μM) [7] [s^–1] | selective index C2C12 [8] | IC50 [8] [µM] | CC50 at 24 h [9] [µM] | CC50 [10] [µM] | other results |
| --- | --- | --- | --- | --- | --- | --- | --- | --- | --- | --- | --- | --- | --- | --- | --- | --- | --- | --- |
| O=[N+]([O-])c1ccc(-c2cn([C@@H]3O[C@H](CO)[C@H](O)[C@H](O)[C@H]3O)nn2)cc1 [Compound 19, (2R,3R,4S,5R,6R)-2-(Hydroxymethyl)-6-(4-(4-nitrophenyl)-1H-1,2,3-triazol-1-yl)tetrahydro-2H-pyran-3,4,5-triol] | 115.6 | 0.7 ± 0.3 | > 80 | > 80 | 39.4 | 2 ± 0.2 | 782.8 | 0.1 ± 0.04 | exceeding 400 | 0.03 ± 0.01 | 0.03 ± 0.01 | 0.04 ± 0.02 | 0.04 ± 0.01 | 677.4 | 0.11 ± 0.02 | > 80 | > 80 | IC50 [5]: 1100 ± 100 µM |
| CC(=O)OC[C@H]1O[C@@H](n2cc(-c3ccc([N+](=O)[O-])cc3)nn2)[C@H](OC(C)=O)[C@@H](OC(C)=O)[C@H]1OC(C)=O [Compound 16, (2R,3S,4S,5R,6R)-2-(Acetoxymethyl)-6-(4-(4-nitrophenyl)-1H-1,2,3-triazol-1-yl)tetrahydro-2H-pyran-3,4,5-triyl Triacetate] | 141.5 | 0.56 ± 0.09 | > 80 | > 80 | 124.9 | 0.6 ± 0.2 | 484.3 | 0.16 ± 0.02 | exceeding 400 | 0.02 ± 0.02 | 0.06 ± 0.01 | 0.07 ± 0.01 | 0.07 ± 0.01 | 621.1 | 0.13 ± 0.01 | > 80 | > 80 | CC50 [11]: > 50 µM; solubility in the TcTS assay medium [12]: low solubility in the medium; CC50 at 3 days [13]: > 50 µM; IC50 [14]: 6 µM |
| O=C(Cn1cc(-c2ccc([N+](=O)[O-])cc2)nn1)NCc1ccccc1 [hit 1] | – | – | – | – | – | – | – | – | – | – | – | – | – | – | – | – | – | IC50 [15]: 7 µM; solubility in water [16]: low solubility in water |
